Measured values from patent US9822114B2, “Tricyclic oxazolidinone antibiotic compounds” (Idorsia Pharmaceuticals Ltd, priority 2008, dated 2017).

System: M. catarrhalis A894
Assay: Minimal inhibitory concentration (MIC), microdilution method in cation-adjusted Mueller-Hinton Broth (CLSI M7-A7)
Format: cell-based
Settings: Moraxella catarrhalis, strain A894
Protocol: Minimal inhibitory concentrations (MICs; mg/1) were determined in cation-adjusted Mueller-Hinton Broth by a microdilution method following the description given in “Methods for Dilution Antimicrobial Susceptibility Tests for Bacteria that Grow Aerobically”, Approved standard, 7th ed., Clinical and Laboratory Standards Institute (CLSI) Document M7-A7, Wayne, Pa., USA, 2006.

MIC, ≤ 0.031 µg/mL:
O=C1CSc2ccc(N3C[C@H](CCNCC4Cn5c(=O)ccc6cccc4c65)OC3=O)nc2N1 (mixture of isomers) [Example 176, (RS)-1-({2-[(S)-2-oxo-3-(3-oxo-3,4-dihydro-2H-pyrido[3,2-b][1,4]thiazin-6-yl)-oxazolidin-5-yl]-ethylamino}-methyl)-1,2-dihydro-pyrrolo[3,2,1-ij]quinolin-4-one]
O=C1CSc2ccc(N3C[C@@H](CCCNC4Cn5c(=O)ccc6ccc(Cl)c4c65)OC3=O)nc2N1 (mixture of isomers) [Example 177, (RS)-9-chloro-1-{3-[(R)-2-oxo-3-(3-oxo-3,4-dihydro-2H-pyrido[3,2-b][1,4]thiazin-6-yl)-oxazolidin-5-yl]-propylamino}-1,2-dihydro-pyrrolo[3,2,1-ij]quinolin-4-one]
O=C1CSc2ccc(N3C[C@@H](CCCNC4Cn5c(=O)ccc6ccc(Cl)c4c65)OC3=O)cc2N1 (mixture of isomers) [Example 178, (RS)-9-chloro-1-{3-[(R)-2-oxo-3-(3-oxo-3,4-dihydro-2H-benzo[1,4]thiazin-6-yl)-oxazolidin-5-yl]-propylamino}-1,2-dihydro-pyrrolo[3,2,1-ij]quinolin-4-one]
CCc1ccc2ccc(=O)n3c2c1C(NCCC[C@@H]1CN(c2ccc4c(c2)NC(=O)CS4)C(=O)O1)C3 (mixture of isomers) [Example 179, (RS)-9-ethyl-1-{3-[(R)-2-oxo-3-(3-oxo-3,4-dihydro-2H-benzo[1,4]thiazin-6-yl)-oxazolidin-5-yl]-propylamino}-1,2-dihydro-pyrrolo[3,2,1-ij]quinolin-4-one]
C#Cc1ccc2ccc(=O)n3c2c1C(NCCC[C@@H]1CN(c2ccc4c(c2)NC(=O)CS4)C(=O)O1)C3 (mixture of isomers) [Example 180, (RS)-9-ethynyl-1-{3-[(R)-2-oxo-3-(3-oxo-3,4-dihydro-2H-benzo[1,4]thiazin-6-yl)-oxazolidin-5-yl]-propylamino}-1,2-dihydro-pyrrolo[3,2,1-ij]quinolin-4-one]
O=C1COc2ccc(N3C[C@H](CCNCC4CN5C(=O)CCc6ccc(F)c4c65)OC3=O)cc2N1 (mixture of isomers) [Example 187, (RS)-9-fluoro-1-({2-[(S)-2-oxo-3-(3-oxo-3,4-dihydro-2H-benzo[1,4]oxazin-6-yl)-oxazolidin-5-yl]-ethylamino}-methyl)-1,2,5,6-tetrahydro-pyrrolo[3,2,1-ij]quinolin-4-one]
O=C1CSc2ccc(N3C[C@@H](CCNCC4Cn5c(=O)ccc6ccc(F)c4c65)OC3=O)nc2N1 (mixture of isomers) [Example 197, (RS)-9-fluoro-1-({2-[(R)-2-oxo-3-(3-oxo-3,4-dihydro-2H-pyrido[3,2-b][1,4]thiazin-6-yl)-oxazolidin-5-yl]-ethylamino}-methyl)-1,2-dihydro-pyrrolo[3,2,1-ij]quinolin-4-one]
O=C1CSc2ccc(N3C[C@H](CCNCC4Cn5c(=O)ccc6ccc(F)c4c65)OC3=O)nc2N1 (mixture of isomers) [Example 198, (RS)-9-fluoro-1-({2-[(S)-2-oxo-3-(3-oxo-3,4-dihydro-2H-pyrido[3,2-b][1,4]thiazin-6-yl)-oxazolidin-5-yl]-ethylamino}-methyl)-1,2-dihydro-pyrrolo[3,2,1-ij]quinolin-4-one]
O=C1CSc2ccc(N3C[C@@H](CCCNC4Cn5c(=O)cnc6ccc(F)c4c65)OC3=O)nc2N1 (mixture of isomers) [Example 199, (RS)-7-fluoro-6-{3-[(R)-2-oxo-3-(3-oxo-3,4-dihydro-2H-pyrido[3,2-b][1,4]thiazin-6-yl)-oxazolidin-5-yl]-propylamino}-5,6-dihydro-pyrrolo[1,2,3-de]quinoxalin-3-one]
